Data reported in US12455279B2, “Personalized immunotherapy for rejuvenating activating and strengthening exhausted and dysfunctional T cells, reducing PD-1, and improving immune function” (priority 2018, dated 2025).
“And” between values parts separate entries of the source, which are not always exact repeats. Identical values can stand only once. Where no end group is shown, it is not given here.

Assays:
Assay type in all cases: cell-based
[1] = test system: PD-1 expressing CD3+ normal human T cells; assay: PD-1 surface expression on CD3+ T cells of healthy donors after treatment (1, 18, 24 Hr); settings: for % reduction in % of T cells expressing PD-1: vs untreated; for effect on PD-1 expressing T cells: incubated for 24 hours
Method: (§1) Peripheral blood lymphocytes (PBLs) were separated from normal human leukocytes of healthy donors by Ficol separation and CD3 positive T cells were separated by anti-CD3 antibody-coupled magnetic beads. The CD3+ T cells were cultured in RPMI 1640 medium supplemented with 10% heat inactivated fetal calf serum (FCS), 1% L-Glutamine, 1% sodium pyruvate, 1% non-essential amino acids, and 1% antibiotics. The cells were usually maintained for, for on average 24 hours after their separation before various molecules were added and their effects on the T cells were measured. […] It was therefore tested if neurotransmitters, neuropeptides, and/or modulators of voltage-gated ion channels can reduce PD-1 on the cell surface of T cells. Such a reduction would allow the T cells to escape the tumor-induced T cell suppression, and the activated T cells could then attach the cancer cells. As such, the expression of PD-1 on the surface of these treated and untreated T cells was monitored. […] Shorter in vitro incubation times are frequently preferable when cells are going to subsequently be returned to a subject, as they end to decrease the risk of an adverse reaction.

[2] = test system: PD-1 expressing large proliferating CD3+ normal human T cells; assay: PD-1 expression on large proliferating T cells (FSC/SSC gating), 1 Hr treatment; settings: for % reduction in % of large T cells expressing PD-1: vs untreated
Method: as §1
(§2) CD3 positive T cells of patients are a heterogenous mix of different types of T cells. […] Using this FCS and SSC analysis, T cells can be distinguished and separated by size into large proliferating T cells and smaller non-proliferating T cells.

[3] = test system: PD-1 expressing smaller non-proliferating CD3+ normal human T cells; assay: PD-1 expression on smaller non-proliferating T cells (FSC/SSC gating), 1 Hr treatment; settings: for % reduction in % of smaller T cells expressing PD-1: vs untreated
Method: as §1, §2

| Compound | % of T cells expressing PD-1 ([1]; 1 Hr treatment, 10^−8M) [%] | % reduction in % of T cells expressing PD-1 ([1]; 1 Hr treatment, 10^−8M) [%] | % of T cells expressing PD-1 ([1]; 24 Hr treatment, 10^−7M) [%] | % reduction in % of T cells expressing PD-1 ([1]; 24 Hr treatment, 10^−7M) [%] | % of T cells expressing PD-1 ([1]; 24 Hr treatment, 10^−8M) | % reduction in % of T cells expressing PD-1 ([1]; 24 Hr treatment, 10^−8M) [%] | % of T cells expressing PD-1 ([1]; 18 Hr treatment, 10^−7M) [%] | % reduction in % of T cells expressing PD-1 ([1]; 18 Hr treatment, 10^−7M) [%] | % of large T cells expressing PD-1 ([2]; 10^−8M) [%] | % reduction in % of large T cells expressing PD-1 ([2]; 10^−8M) [%] | % of smaller T cells expressing PD-1 ([3]; 10−8M) [%] | % reduction in % of smaller T cells expressing PD-1 ([3]; 10−8M) [%] | other results |
| --- | --- | --- | --- | --- | --- | --- | --- | --- | --- | --- | --- | --- | --- |
| CCCN(CCC)C1CCc2ccc(O)cc2C1 (centres unmarked) [7-OH-DPAT] | 21.65 | 42 | 5.12 | 75.85 | 13.6% | 35.85 | – | – | – | – | – | – | – |
| NC[C@@H]1O[C@H](C23CC4CC(CC(C4)C2)C3)Cc2c1ccc(O)c2O [A77636] | 27.25 | 25 | 12.7 | 37.84 | 14.7% | 28.05 | 27.10 | 21.90 | 20.5 | 4.7 | 40.8 | 7.1 | – |
| Cc1cccc(NC(=O)CN2CCC(c3ccccn3)CC2)c1 [A412997] | 17.4 | 52 | – | – | – | – | – | – | – | – | – | – | – |
| Cc1onc(O)c1CC(N)C(=O)O (centres unmarked) [AMPA, alph-amino-3-hydroxy-5-methyl-4-isoxazalepropinoic acid] | 26.4 | 28 | – | – | – | – | 28.55 | 17.72 | – | – | – | – | – |
| N#Cc1cc2[nH]c(=O)c(=O)[nH]c2cc1[N+](=O)[O-] [CNQX] | – | – | – | – | – | – | – | – | – | – | – | – | % of T cells expressing PD-1 ([1]; 24 Hr treatment, 0.5*10^-6M): 13.7%; % reduction in % of T cells expressing PD-1 ([1]; 24 Hr treatment, 0.5*10^-6M): 32.93%; % of T cells expressing PD-1 ([1]; 24 Hr treatment, 0.5*10^−5M): 12.9%; % reduction in % of T cells expressing PD-1 ([1]; 24 Hr treatment, 0.5*10^−5M): 36.84% |
| Oc1ccc(C2CNCCc3c2cc(O)c(O)c3Cl)cc1 (centres unmarked) [Fenoldopam (powder), Fenoldopam] | – | – | 21.3 | −4.26 | 14.7% | 28.05 | 25.75 | 25.79 | – | – | – | – | effect on PD-1 expressing T cells [1]: did not have a positive effect |
| Oc1ccc(C2CNCCc3c2cc(O)c(O)c3Cl)cc1 (centres unmarked) [Fenoldopam - Corlopam, Fenoldopam] | – | – | – | – | – | – | 27.87 | 19.74 | – | – | – | – | – |
| OC1(c2ccc(Cl)cc2)CCN(Cc2c[nH]c3ccccc23)CC1 [L-741,626] | – | – | – | – | – | – | – | – | – | – | – | – | % of large T cells expressing PD-1 ([2]; concentration not given): 19.0%; % reduction in % of large T cells expressing PD-1 ([2]; concentration not given): 11.6%; % of smaller T cells expressing PD-1 ([3]; concentration not given): 38.6%; % reduction in % of smaller T cells expressing PD-1 ([3]; concentration not given): 12.1% |
| Cc1c(C2CCN(CCc3ccccc3)CC2)noc1-c1ccc(Cl)cc1 [L-741,742] | – | – | – | – | – | – | – | – | – | – | – | – | % of large T cells expressing PD-1 ([2]; concentration not given): 19.3%; % reduction in % of large T cells expressing PD-1 ([2]; concentration not given): 10.2%; % of smaller T cells expressing PD-1 ([3]; concentration not given): 37.8%; % reduction in % of smaller T cells expressing PD-1 ([3]; concentration not given): 13.9% |
| O=C(NCCCCN1CCN(c2cccc(Cl)c2Cl)CC1)c1ccc2c(c1)Cc1ccccc1-2 [NGB 2904] | – | – | – | – | – | – | – | – | – | – | – | – | % of large T cells expressing PD-1 ([2]; concentration not given): 22.5%; % reduction in % of large T cells expressing PD-1 ([2]; concentration not given): −4.7%; % of smaller T cells expressing PD-1 ([3]; concentration not given): 40.2%; % reduction in % of smaller T cells expressing PD-1 ([3]; concentration not given): 8.4% |
| CN[C@H](CC(=O)O)C(=O)O [NMDA, N-methyl-D-aspartic acid] | 30.35 | 17 | – | – | – | – | 24.75 | 28.67 | – | – | – | – | – |
| Cc1cccc(C(=O)NCN2CCN(c3ccccc3C#N)CC2)c1 [PD168077] | 15.1 | 59 | 5.3 | 74.05 | – | – | 24 | 30.84 | 15.6 | 27.4 | 40.3 | 8.2 | reduction of PD-1 surface expression level and of number of PD-1 expressing T cells ([1]; 1, 18 or 24 hours treatment): greatest reduction in mean percentage of PD-1 expressing T cells after 24 hours of treatment |
| CCCN1CCO[C@@H]2c3cc(O)ccc3OC[C@H]21 [PD 128907] | 26.15 | 29 | 13.6 | 33.41 | 16.3% and 10.7% | 47.61 | 27.25 | 21.47 | 16.1 | 25.1 | 38.4 | 12.5 | – |
| CN1CCc2cc(Cl)c(O)cc2[C@H]2c3ccccc3CC[C@@H]21 [SCH 39166] | – | – | – | – | – | – | – | – | – | – | – | – | % of large T cells expressing PD-1 ([2]; concentration not given): 19.8%; % reduction in % of large T cells expressing PD-1 ([2]; concentration not given): 7.9%; % of smaller T cells expressing PD-1 ([3]; concentration not given): 40.1%; % reduction in % of smaller T cells expressing PD-1 ([3]; concentration not given): 8.7% |
| Oc1cc2c(cc1O)C(c1ccccc1)CNCC2 (centres unmarked) [SKF38393] | 26.2 | 28 | 21.8 | -6.73 | 20.3% | 0.61 | 26.40 | 23.90 | 15.6 | 27.4 | 36.7 | 16.4 | effect on PD-1 expressing T cells [1]: did not have a positive effect |
| CN[C@@H]1Cc2cccc3[nH]c(=O)n(c23)C1 [Sumanirole] | 25.65 | 30 | 16.4 | 19.71 | 16% | 21.66 | 26.15 | 24.64 | 13.6 | 36.7 | 36.2 | 17.5 | – |
| Dendrotoxin K | 34.6 | 25 | 16.2 | 20.69 | 16.2% | 20.69 | 23.30 | 32.85 | – | – | – | – | – |
| GnRH-I: neuropeptide (QHWSYGLRPG; ends and bridges not checked; UniProt P01148 24-33, looked up) | 34.27 | 6 | – | – | – | – | – | – | 16.1 | 25.1 | 36.6 | 16.6 | – |
